Data set [1] has as its system avian influenza virus A/FPV/Bratislava/79 (H7N7). The data set is classed as cell-based. Conditions: for virus titers: 18 hrs; for IV titers: 2 μM tamiflu vs Hepes, in absence or presence of S. aureus 6850.
Data set [2] relates to Staphylococcus aureus 6850. The experiment in a line: mouse co-infection model, bacterial titers in lung homogenate. Type of data set: in vivo, Balb/C mice. Conditions: S. aureus super-infection day 3, lungs day 4. On the procedure: (§1) FIG. 17: Administration of U0126 leads to reduced bacterial titers in vivo independent of viral titers. 12 weeks old Balb/C mice were infected with 50 PFU of the influenza virus strain A/Puerto Rico/8/34 (PR8, H1N1) on day 0 (anesthesized with Isoflurane). Starting on day 1 mice were treated daily with i.p. injection of 30 mg/kg/day U0126 or solvent control (10% DMSO, 30% Cremophor EL, 60% PBS). On day 3 mice were infected with 5*10^7 CFU of Staphylococcus aureus 6850 under anesthesia with Isoflurane and directly treated with U0126 or solvent control. On day 4 lungs were removed and homogenized in PBS (0.1 g per 1000 μl PBS). For calculation of bacterial titers serial dilutions of the homogenate were plated on BHI agar. For determination of viral titers a standard plaque assay was performed. Statistical analysis was done using Mann-Whitney U Test (* p<0.05).
(§2) 8 weeks old Balb/C mice (5 per group) were infected with 50 PFU of influenza virus strain A/Puerto Rico/8/34 (PR8, H1N1) on day 0 (anesthesized with Isoflurane). 6 hrs post viral infection mice were treated with oral administration of 10 mg/kg/day Cobimetinib or solvent control (10% DMSO, 5% Tween 20, 85% PBS). Treatment was then performed daily. On day 3 mice were infected with 5*10^7 CFU of Staphylococcus aureus 6850 under anesthesia with Isoflurane and 6 hrs later treated with Cobimetinib or solvent control. […]

For data set [3] the following is noted: shown recently; cited from earlier work.
In data set [4] the test system is influenza virus strain A/Puerto Rico/8/34 (PR8, H1N1). As to the kind of experiment: mouse co-infection model, viral titers in lung homogenate (plaque assay). Conditions: lungs day 4. Type of data set: in vivo, Balb/C mice. On the procedure: as §1, §2
Data set [5] concerns viral protein (PB1).
For data set [6], the system named is S. aureus 6850. Type of data set: cell-based, Staphylococcus aureus.
The subject of data set [7] is S. aureus 6850. The data set is classed as cell-based, Staphylococcus aureus. The source holds these as a separate data set.
The subject of data set [8] is CCL3. Conditions: 50 μM U0126; H3N2 (MOI=5) with or without S. aureus 6850 (MOI=50); 8 hrs; preliminary results.
For data set [9], the system named is influenza virus A/Puerto Rico/8/34 (H1N1). Type of data set: cell-based.
In data set [10] the test system is CCL5. Conditions: 50 μM U0126; H3N2 (MOI=5) with or without S. aureus 6850 (MOI=50); 8 hrs; preliminary results.
Data set [11] has as its system Human lung epithelial cells (A549). Type of data set: cell-based.
Data set [12] concerns ERK-1/2 phosphorylation. Conditions: 50 μM U0126; western blot, 8 hrs.
For data set [13], the system named is S. aureus 6850. The experiment in a line: bacterial internalisation (uptake) into A549 cells after 4 h preincubation. Conditions: 2.5 ng/ml TNF-alpha, stimulation 4 hours prior bacterial infection; 120 min.
In data set [14] the test system is S. aureus USA300. The description is as above. Conditions: 2.5 ng/ml TNF-alpha, stimulation 4 hours prior bacterial infection; MOI=5; 120 min.
Where [15] appears, read: […], U0126 50 μM, SB202190 10 μM or LG-ASA 5 mM vs solvent control.
Setting [16] is: […], U0126 50 μM, SB202190 10 μM or LG-ASA 5 mM vs solvent control, listed as SB02190.

Entries after “also recorded” stand apart in the source; their conditions may differ. Where two headings read alike, the source gives them in different places.

Regarding `O=C(NOCC1CC1)c1ccc(F)c(F)c1Nc1ccc(I)cc1Cl` [CI-1040, 2-(2-chloro-4-iodophenylamino)-N-(cyclopropylmethoxy)-3,4-difluorobenzamide], the virus titers result in data set [1] (10 μM CI-1040 vs solvent, singular and co-infection with S. aureus 6850 (MOI=0.1), MOI=0.01) is “reduction; also recorded: reduces”.
On to `O=C(c1ccc(F)c(F)c1Nc1ccc(I)cc1F)N1CC(O)([C@@H]2CCCCN2)C1` [Cobimetinib, [3,4-difluoro-2-[(2-fluoro-4-iodophenyl)amino]phenyl] [3-hydroxy-3-[(2S)-2-piperidinyl]-1-azetidinyl]methanone], for which, in [2] (Cobimetinib 10 mg/kg/day oral, daily), the “bacterial titers in vivo (lung)” value was “slight but clearly detectable reduction; also recorded: reduces”. Moreover, the maximal tolerated dose in data set [3] is on record as 30 mg/kg/day. The “viral titers in vivo (lung)” value in data set [4] (Cobimetinib 10 mg/kg/day oral, daily from 6 hrs post viral infection) is “slight but clearly detectable reduction; also recorded: reduces”.
On to `N#CC(=C(/N)Sc1ccccc1N)/C(C#N)=C(\N)Sc1ccccc1N` [U0126], for which the “bacterial titers in vivo (lung)” value in [2] (U0126 30 mg/kg/day i.p. daily from day 1, 30 mg/kg/day) is reported as “significantly reduced”. The “viral protein synthesis (PB1)” value in data set [5] is on record as “reduction”. Moreover, the “bacterial titers of internalized S. aureus 6850” value in data set [6] is reported as “only slightly decreased”. Besides, the “intracellular amounts of S. aureus (S. aureus load)” value in [6] is “reduces”. The bacterial growth entry in [7] is given as “inhibited; also recorded: reduced”. For the same compound, the “bacterial titers without living cells” value in [7] is “reduced”. For the same compound, the “IAV-induced CCL3 mRNA synthesis” value in [8] is given as “reduced”. Further, the “IV replication (IV titers)” value in data set [9] was “inhibitory effects; also recorded: reduces”; in data set [1] (singular infection, MOI=0.001, 50 μM U0126 vs DMSO) it was “inhibitory effects; also recorded: reduces”. For the same compound, the “viral titers in presence of S. aureus” value is reported as “reduces” in data set [9] and “reduces” in data set [1] (co-infection with S. aureus 6850 (MOI=0.5), virus MOI=0.001, 50 μM U0126 vs DMSO). In addition, the virus titers entry is on record as “reduced” in data set [1] (50 μM U0126 vs solvent, co-infection with S. aureus 6850 (MOI=0.1)) and “significant reduction” in [1] (50 μM U0126 vs solvent, singular infection, MOI=0.01). Besides, the “IAV-induced CCL5 mRNA synthesis” value in data set [10] is given as “further reduced”. Further, in data set [11], the “cell damage of cell layer (cell morphology)” value is on record as “much less damaged”. In addition, the “effect on MEK/ERK signalling (ERK1/2 phosphorylation)” value in data set [12] is on record as “inhibitory effect”. The “virus titers in vivo (lung)” value in [4] (U0126 30 mg/kg/day i.p. daily from day 1) is reported as “fail of reduced virus titers”.
With `CCOC(=O)C1=C[C@@H](OC(CC)CC)[C@H](NC(C)=O)[C@@H](N)C1` [Oseltamivir], the “intracellular bacterial amounts (S. aureus load)” value in [6] is listed as “rather increased; also recorded: enhances”. The IV titers entry is “significantly reduced” in data set [1] (MOI=0.001) and “reduces” in data set [1] (MOI=0.001, listed as tamiflu).
Regarding `Oc1ccc(-c2nc(-c3ccncc3)c(-c3ccc(F)cc3)[nH]2)cc1` [SB202190], the “IV replication (IV titers)” value in data set [9] (setting [15]) is reported as “reduces”; in data set [9] (setting [16]) it was “inhibitory effects”. Besides, the “viral titers in presence of S. aureus” value in data set [9] (setting [15]) is “reduces”; in data set [9] (setting [16]), “reduced”.
As for TNF-α, the “bacterial uptake upon NFκB activation” value in data set [13] and in [14] was “enhanced uptake” throughout.

Values taken from patent US11135263B2 (priority 2014, dated 2021).
